Measured values as given in publication PMC6152084, “Synthesis of New Hydrazone Derivatives for MAO Enzymes Inhibitory Activity” (Molecules : A Journal of Synthetic Chemistry and Natural …, 2017).

Assays:
hMAO-A [1] = biological target: T1, hMAO-A (Homo sapiens, UniProt P21397); test: MAO-A inhibition assay (in vitro fluorometric Amplex Red method); format: biochemical; details: for inhibition at 1000 µM: 10^−3 M; for inhibition at 100 µM: 10^−4 M; for inhibition at 10 µM: 10^−5 M; for inhibition at 1 µM: 10^−6 M; for inhibition at 0.1 µM: 10^−7 M; for inhibition at 0.01 µM: 10^−8 M; for inhibition at 0.001 µM: 10^−9 M; for inhibition against hMAO-A in the initial assay: first step, 10^−3 and 10^−4 M; for selectivity towards hMAO-A: versus hMAO-B
T1 construct: purchased Sigma-Aldrich (Steinheim, Germany)
T1 sequence (P21397 1-527): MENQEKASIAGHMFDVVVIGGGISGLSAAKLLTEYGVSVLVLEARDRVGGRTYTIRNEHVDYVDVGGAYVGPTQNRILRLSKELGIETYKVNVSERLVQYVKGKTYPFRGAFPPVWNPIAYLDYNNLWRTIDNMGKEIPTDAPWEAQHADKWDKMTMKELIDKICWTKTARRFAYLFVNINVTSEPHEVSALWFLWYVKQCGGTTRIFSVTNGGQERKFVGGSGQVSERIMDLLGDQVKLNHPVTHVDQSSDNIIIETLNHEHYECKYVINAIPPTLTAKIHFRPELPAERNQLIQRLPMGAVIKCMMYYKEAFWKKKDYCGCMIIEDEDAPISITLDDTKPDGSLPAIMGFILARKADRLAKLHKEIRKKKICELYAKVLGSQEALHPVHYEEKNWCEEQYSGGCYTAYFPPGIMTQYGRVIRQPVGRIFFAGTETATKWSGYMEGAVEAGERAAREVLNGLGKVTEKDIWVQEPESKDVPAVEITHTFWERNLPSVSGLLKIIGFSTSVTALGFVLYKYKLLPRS

hMAO-A [2] = biological target: T1, hMAO-A; test: Enzyme kinetics (Lineweaver-Burk plots, tyramine substrate); format: biochemical; details: for type of inhibition of hMAO-A: Lineweaver-Burk plot
Procedure: The mechanism of hMAO-A inhibition was investigated by enzyme kinetics, following a similar procedure to the MAO inhibition assay. The linear Lineweaver-Burk graphics were used to estimate the type of inhibition. […] In each case, the initial velocity measurements were gained at different substrate (tyramine) concentrations ranging from 20 μM to 0.625 μM. The Ki (intercept on the x-axis) values of compounds 2a and 2b were determined from the secondary plot of the Km/Vmax (slope) versus varying concentrations.
Based on the type of interaction with the enzyme, inhibitor binding can be classified as either reversible or irreversible. The type of inhibition can be determined by the Lineweaver-Burk plot as mixed-type, uncompetitive, competitive, or noncompetitive, which are the indicators of a reversible inhibitor [23]. It is known that in the uncompetitive type inhibition a graphic, including the parallel lines without any cross, is observed. If the lines cross neither the x- nor the y-axis at the same point the inhibition type is called mixed-type. Noncompetitive inhibition is seen if the plots intersect on the x-axis. There are different slopes and intercepts on the y-axis. On the other hand, competitive inhibition gives the opposite situation. This type of inhibition has plots with the same intercept on the y-axis but there are diverse slopes and intercepts on the x-axis, which are observed in Figure 2 and Figure 3.
The same materials were used as in the MAO inhibition assay. […] The solutions of inhibitor (20 μL/well) and enzyme were added to the flat black bottom 96-well micro test plate, and incubated at 37 °C for 30 min. After incubation period, the working solution, including various concentrations (20, 10, 5, 2.5, 1.25, and 0.625 μM) of tyramine (100 μL/well) was added. The increase of the fluorescence (Ex/Em = 535/587 nm) was recorded for 30 min. A parallel experiment was carried out without inhibitor. All processes were assayed in quadruplicate. The results were analyzed as Lineweaver-Burk plots using Microsoft Office Excel 2013. The Km/Vmax (slope) values of the Lineweaver-Burk plots were replotted versus the inhibitor concentration, and the Ki values were determined from the x-axis intercept as −Ki.

SMILES	IC50 (hMAO-A [1]) [nM]	inhibition at 1000 µM (hMAO-A [1]) [%]	inhibition at 100 µM (hMAO-A [1]) [%]	inhibition at 10 µM (hMAO-A [1]) [%]	inhibition at 1 µM (hMAO-A [1]) [%]	inhibition at 0.1 µM (hMAO-A [1]) [%]	inhibition at 0.01 µM (hMAO-A [1]) [%]	inhibition at 0.001 µM (hMAO-A [1]) [%]	inhibition against hMAO-A in the initial assay (hMAO-A [1])	selectivity towards hMAO-A (hMAO-A [1])	Vmax value of the competitive inhibition (hMAO-A [2]) [nmol/min/mg protein]	type of inhibition of hMAO-A (hMAO-A [2])	Ki (hMAO-A [2]; secondary plot of Km/Vmax (slope) versus inhibitor concentration, read-out: Ki for the inhibition of hMAO-A) [nM]	fold more active than moclobemide against hMAO-A (hMAO-A [1]; ratio of IC50 values) [fold]
CC1CCCCN1c1ccc(/C=N/Nc2ccccc2)cc1 (centres unmarked) [Compound 2a, 1-(4-(2-Methypiperidin-1-yl)benzylidene)-2-phenylhydrazine]	342 ± 15	88.2 ± 0.821	84.29 ± 0.641	75.1 ± 0.693	50.8 ± 0.582	34.7 ± 0.378	30.5 ± 0.542	25.5 ± 0.517	more than 50%	selective inhibition potency towards hMAO-A	85.517 ± 2.332	reversible and competitive	188	
CN1CCN(c2ccc(C=NNc3ccccc3)cc2)CC1 [Compound 2b, 1-(4-(4-Methylpiperazine-1-yl)benzylidene)-2-phenylhydrazine]	28 ± 1	93.53 ± 0.412	88.86 ± 0.214	80.42 ± 0.47	66.22 ± 0.54	48.2 ± 0.631	45.3 ± 0.48	38.15 ± 0.367	more than 50%	selective inhibition potency towards hMAO-A	79.360 ± 5.704	reversible and competitive		216
